Legend:
hippocampal slices, CA1 = test: LTP recording; assay type: in vivo, mouse; settings: 30 mg/kg i.p. + scopolamine 1 mg/kg i.p.
D2 = D2 (Homo sapiens, UniProt P14416); test: Receptor binding, [3H]-Spiperone; settings: read-out: % Inhibition of binding by D01 (10 μmol/L)
NMDA = test: Receptor binding, [3H]-MK801
H3 = H3 (Homo sapiens, UniProt Q9Y5N1); test: Receptor binding, [3H]-Methylhistamine; settings: read-out: % Inhibition of binding by D01 (10 μmol/L)
mice [1] = test: Forced swimming test; assay type: in vivo, mouse; settings: i.g., 1 h before test, doses 10, 30, 100 mg/kg
CRS mice [2] = test: FST in chronic restraint stress; assay type: in vivo, mouse
animals = test: Observation of epileptic behavior in treated animals; assay type: in vivo; settings: up to 100 mg/kg
native KCNQ/M channels = test: Whole-cell recording of native M current in cultured hippocampal neurons; settings: measured at −60 mV
Sigma-1 = Sigma-1 (Homo sapiens, UniProt Q99720); test: Receptor binding, [3H]-Pentazocine; settings: read-out: % Inhibition of binding by D01 (10 μmol/L)
hippocampal neurons = test: Resting membrane potential and firing of cultured hippocampal neurons; assay type: cell-based, rat; settings: 100 μmol/L
5-HT1A = 5-HT1A (Homo sapiens, UniProt P08908); test: Receptor binding, [3H]-8-OH-DPAT; settings: read-out: % Inhibition of binding by D01 (10 μmol/L)
α2 = test: Receptor binding, [3H]-Rauwolscine; settings: α2, 10 μmol/L
5-HT2A = 5-HT2A (Homo sapiens, UniProt P28223); test: Receptor binding, [3H]-Ketanserin; settings: read-out: % Inhibition of binding by D01 (10 μmol/L)
normal mice = test: Novel object recognition; assay type: in vivo, mouse
D1 = D1 (Homo sapiens, UniProt P21728); test: Receptor binding, [3H]-SCH23390; settings: read-out: % Inhibition of binding by D01 (10 μmol/L)
scopolamine-treated mice = test: NOR in scopolamine-induced cognitive deficit; assay type: in vivo, mouse
α1 = test: Receptor binding, [3H]-Prazosin
mice [3] = test: Tail suspension test; assay type: in vivo, mouse; settings: i.g., 60 min before test, doses 10, 30, 100 mg/kg
SERT = SERT (Rattus norvegicus, UniProt P31652); test: [3H]5-HT uptake by crude synaptosomes; assay type: biochemical
5-HT2C = 5-HT2C (Homo sapiens, UniProt P28335); test: Receptor binding, [3H]-Mesulergine; settings: read-out: % Inhibition of binding by D01 (10 μmol/L)
CRS mice [4] = test: TST in chronic restraint stress; assay type: in vivo, mouse
D3 = D3 (Homo sapiens, UniProt P35462); test: Receptor binding, [3H]-Spiperone; settings: read-out: % Inhibition of binding by D01 (10 μmol/L)
CRS mice [5] = test: Morris water maze; assay type: in vivo, mouse
5-HT1B = 5-HT1B (Homo sapiens, UniProt P28222); test: Receptor binding, [3H]-GR-125743; settings: read-out: % Inhibition of binding by D01 (10 μmol/L)
M1 = M1 (Homo sapiens, UniProt P11229); test: Receptor binding, [3H]-QNB; settings: read-out: % Inhibition of binding by D01 (10 μmol/L)
H1 = H1 (Homo sapiens, UniProt P35367); test: Receptor binding, [3H]-Pyrilamine
KCNQ2/3 channels = KCNQ2/3 channels (Homo sapiens, UniProt O43525+O43526); assay type: cell-based
[6] = target: serotonin transporter (SERT) (Rattus norvegicus, UniProt P31652); assay type: binding
[7] = fluoxetine 20 mg/kg i.g., 21 days

Chain of H1 (P35367 whole entry): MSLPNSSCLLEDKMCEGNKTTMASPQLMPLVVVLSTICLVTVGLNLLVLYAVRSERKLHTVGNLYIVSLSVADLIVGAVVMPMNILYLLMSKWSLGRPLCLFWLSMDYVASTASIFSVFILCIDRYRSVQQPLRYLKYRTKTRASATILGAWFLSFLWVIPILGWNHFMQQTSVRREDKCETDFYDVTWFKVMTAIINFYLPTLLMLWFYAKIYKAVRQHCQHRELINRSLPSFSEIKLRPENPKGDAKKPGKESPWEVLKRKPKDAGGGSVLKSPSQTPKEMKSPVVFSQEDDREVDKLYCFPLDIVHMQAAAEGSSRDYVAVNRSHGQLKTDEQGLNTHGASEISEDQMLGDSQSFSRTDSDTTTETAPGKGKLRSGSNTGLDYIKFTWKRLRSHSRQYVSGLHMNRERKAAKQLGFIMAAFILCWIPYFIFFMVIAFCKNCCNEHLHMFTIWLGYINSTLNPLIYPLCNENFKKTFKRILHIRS
Chain of Sigma-1 (Q99720 whole entry): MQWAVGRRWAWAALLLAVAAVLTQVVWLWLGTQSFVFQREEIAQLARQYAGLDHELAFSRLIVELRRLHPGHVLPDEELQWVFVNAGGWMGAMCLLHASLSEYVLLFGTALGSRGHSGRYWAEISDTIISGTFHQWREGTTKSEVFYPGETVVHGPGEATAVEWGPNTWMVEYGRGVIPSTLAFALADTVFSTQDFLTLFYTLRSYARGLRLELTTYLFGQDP
Chain of D3 (P35462 whole entry): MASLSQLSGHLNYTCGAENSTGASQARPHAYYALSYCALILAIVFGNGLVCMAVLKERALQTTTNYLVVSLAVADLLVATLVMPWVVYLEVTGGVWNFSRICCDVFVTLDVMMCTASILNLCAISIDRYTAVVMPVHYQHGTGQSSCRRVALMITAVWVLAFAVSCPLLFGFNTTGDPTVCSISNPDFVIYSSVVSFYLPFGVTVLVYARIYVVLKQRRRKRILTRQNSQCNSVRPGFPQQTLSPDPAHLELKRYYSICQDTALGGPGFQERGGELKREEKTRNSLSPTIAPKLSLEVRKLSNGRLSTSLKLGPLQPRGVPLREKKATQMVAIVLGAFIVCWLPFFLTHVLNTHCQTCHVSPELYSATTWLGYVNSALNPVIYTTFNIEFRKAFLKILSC
Chain of 5-HT2A (P28223 whole entry, species assumed): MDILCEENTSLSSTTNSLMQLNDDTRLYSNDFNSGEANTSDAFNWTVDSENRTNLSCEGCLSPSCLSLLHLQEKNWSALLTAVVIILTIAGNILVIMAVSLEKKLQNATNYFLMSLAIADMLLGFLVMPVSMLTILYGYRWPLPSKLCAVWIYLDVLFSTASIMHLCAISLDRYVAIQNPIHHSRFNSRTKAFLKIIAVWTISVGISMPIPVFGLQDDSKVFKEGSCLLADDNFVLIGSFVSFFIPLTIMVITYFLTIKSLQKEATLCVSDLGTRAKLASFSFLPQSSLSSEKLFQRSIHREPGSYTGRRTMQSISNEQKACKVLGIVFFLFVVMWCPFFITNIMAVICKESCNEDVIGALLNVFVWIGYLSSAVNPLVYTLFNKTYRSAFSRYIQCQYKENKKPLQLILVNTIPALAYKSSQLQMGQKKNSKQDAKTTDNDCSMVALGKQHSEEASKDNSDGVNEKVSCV
Chain of D1 (P21728 whole entry): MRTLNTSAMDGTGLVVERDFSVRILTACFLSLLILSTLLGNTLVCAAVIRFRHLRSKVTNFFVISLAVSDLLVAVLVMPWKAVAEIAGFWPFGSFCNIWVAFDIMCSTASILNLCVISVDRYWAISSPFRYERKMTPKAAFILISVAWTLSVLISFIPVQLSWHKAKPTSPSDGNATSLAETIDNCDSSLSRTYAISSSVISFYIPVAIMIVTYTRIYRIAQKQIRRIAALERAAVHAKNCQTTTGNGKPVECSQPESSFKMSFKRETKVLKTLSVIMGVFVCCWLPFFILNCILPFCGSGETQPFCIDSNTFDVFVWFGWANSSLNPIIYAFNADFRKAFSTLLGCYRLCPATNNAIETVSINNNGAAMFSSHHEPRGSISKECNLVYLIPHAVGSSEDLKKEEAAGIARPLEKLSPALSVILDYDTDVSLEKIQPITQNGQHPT
Chain of serotonin transporter (SERT) (P31652 whole entry): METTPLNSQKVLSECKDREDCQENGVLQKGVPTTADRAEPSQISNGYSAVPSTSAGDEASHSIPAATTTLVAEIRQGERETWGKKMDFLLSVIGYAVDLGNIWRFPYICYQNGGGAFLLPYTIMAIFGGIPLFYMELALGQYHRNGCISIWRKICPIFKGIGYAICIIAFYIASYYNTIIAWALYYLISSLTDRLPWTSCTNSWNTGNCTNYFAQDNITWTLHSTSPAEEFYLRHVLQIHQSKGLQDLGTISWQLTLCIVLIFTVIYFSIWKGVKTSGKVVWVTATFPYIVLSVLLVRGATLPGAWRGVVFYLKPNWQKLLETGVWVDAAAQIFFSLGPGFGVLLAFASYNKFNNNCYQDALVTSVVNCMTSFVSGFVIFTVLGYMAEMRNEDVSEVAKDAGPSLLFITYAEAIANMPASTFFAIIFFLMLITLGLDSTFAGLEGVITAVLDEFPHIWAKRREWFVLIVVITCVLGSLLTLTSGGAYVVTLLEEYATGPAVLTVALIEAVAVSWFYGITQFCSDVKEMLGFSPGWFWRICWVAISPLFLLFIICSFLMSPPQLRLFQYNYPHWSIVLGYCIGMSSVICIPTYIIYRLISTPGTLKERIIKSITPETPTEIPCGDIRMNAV
Chain of SERT (P31652 whole entry): as above
Chain of 5-HT1A (P08908 whole entry, species assumed): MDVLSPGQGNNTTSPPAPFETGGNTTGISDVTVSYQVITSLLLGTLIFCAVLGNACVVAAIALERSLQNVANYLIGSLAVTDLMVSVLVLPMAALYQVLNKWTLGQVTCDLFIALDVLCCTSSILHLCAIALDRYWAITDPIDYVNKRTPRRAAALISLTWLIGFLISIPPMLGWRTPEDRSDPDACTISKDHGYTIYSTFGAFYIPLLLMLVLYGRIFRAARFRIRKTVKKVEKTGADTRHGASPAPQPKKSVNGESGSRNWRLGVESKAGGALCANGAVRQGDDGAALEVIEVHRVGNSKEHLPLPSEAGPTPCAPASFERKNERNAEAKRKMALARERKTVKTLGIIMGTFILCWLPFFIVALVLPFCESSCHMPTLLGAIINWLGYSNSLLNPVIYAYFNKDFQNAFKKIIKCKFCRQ
Chain of H3 (Q9Y5N1 whole entry): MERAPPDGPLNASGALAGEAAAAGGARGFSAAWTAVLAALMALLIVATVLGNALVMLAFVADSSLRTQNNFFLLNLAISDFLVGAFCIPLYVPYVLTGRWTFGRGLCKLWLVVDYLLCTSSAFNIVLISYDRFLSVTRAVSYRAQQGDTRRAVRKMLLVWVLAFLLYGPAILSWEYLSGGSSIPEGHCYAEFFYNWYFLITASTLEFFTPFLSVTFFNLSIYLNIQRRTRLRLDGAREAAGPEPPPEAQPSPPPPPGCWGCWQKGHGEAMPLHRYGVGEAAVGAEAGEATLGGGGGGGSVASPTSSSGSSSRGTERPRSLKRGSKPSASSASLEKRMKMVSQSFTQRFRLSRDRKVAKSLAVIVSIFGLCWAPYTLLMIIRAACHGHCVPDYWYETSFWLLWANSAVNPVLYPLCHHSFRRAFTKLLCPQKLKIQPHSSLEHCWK
Chain of 5-HT1B (P28222 whole entry, species assumed): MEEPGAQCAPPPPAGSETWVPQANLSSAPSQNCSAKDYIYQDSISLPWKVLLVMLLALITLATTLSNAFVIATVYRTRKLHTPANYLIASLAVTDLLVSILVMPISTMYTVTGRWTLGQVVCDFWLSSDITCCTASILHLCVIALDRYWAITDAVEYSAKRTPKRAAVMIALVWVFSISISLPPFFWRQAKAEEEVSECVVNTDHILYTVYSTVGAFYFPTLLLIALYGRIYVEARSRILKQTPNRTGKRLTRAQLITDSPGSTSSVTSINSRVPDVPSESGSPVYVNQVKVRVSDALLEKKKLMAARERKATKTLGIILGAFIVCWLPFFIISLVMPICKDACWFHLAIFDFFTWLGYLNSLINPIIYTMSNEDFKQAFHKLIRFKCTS
Chain of 5-HT2C (P28335 33-458, species assumed): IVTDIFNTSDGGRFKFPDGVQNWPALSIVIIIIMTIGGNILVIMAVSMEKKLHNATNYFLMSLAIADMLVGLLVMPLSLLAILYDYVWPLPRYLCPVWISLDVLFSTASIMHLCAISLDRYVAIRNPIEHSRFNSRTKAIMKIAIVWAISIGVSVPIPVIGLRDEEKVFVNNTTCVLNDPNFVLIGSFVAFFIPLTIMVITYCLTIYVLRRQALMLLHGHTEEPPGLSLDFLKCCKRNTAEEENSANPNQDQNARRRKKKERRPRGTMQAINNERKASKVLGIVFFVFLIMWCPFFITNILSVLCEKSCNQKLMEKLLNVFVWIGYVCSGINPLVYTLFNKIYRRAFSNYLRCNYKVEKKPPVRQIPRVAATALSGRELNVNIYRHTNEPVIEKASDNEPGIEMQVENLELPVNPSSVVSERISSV

CC(CN(C)C)C(Oc1cccc2ccccc12)c1cccs1 (centres unmarked) [Compound D01, N,N,2-trimethyl-3-(1-naphthyloxy)-3-(thien-2-yl) propan-1-amine]
effect on scopolamine-induced LTP inhibition (hippocampal slices, CA1): significantly reversed
inhibition at 10 µM (D2): 16.1%
% Inhibition of binding by D01 (10 μmol/L) (NMDA): 9.83%
inhibition at 10 µM (H3): 13.9%
minimal effective dose (MED), immobility in FST (mice [1]): 30 mg/kg
immobility time in FST (CRS mice [2]; 20 mg/kg i.g., 21 days (D01)): 54.53 ± 18.11 s
immobility time in FST (CRS mice [2]; 40 mg/kg i.g., 21 days): 44.62 ± 17.03 s
epileptic behavior (animals): did not observe
effect on native M current (native KCNQ/M channels; 100 μmol/L): dramatically inhibits
inhibition at 10 µM (Sigma-1): 34%
effect on resting membrane potential (hippocampal neurons): depolarizes
significant increase of firing frequency (hippocampal neurons): did not observe
inhibition at 10 µM (5-HT1A): -24.1%
% Inhibition of binding by D01 (10 μmol/L) (α2): 38.43%
inhibition at 10 µM (5-HT2A): 25.1%
time spent on familiar object (normal mice; 30 mg/kg i.g.): 7.20 ± 2.73 s
time spent on novel object (normal mice; 30 mg/kg i.g.): 18.10 ± 6.42 s
time spent on familiar object (normal mice; 100 mg/kg i.g.): 10.90 ± 2.50 s
time spent on novel object (normal mice; 100 mg/kg i.g.): 21.90 ± 4.84 s
inhibition at 10 µM (D1): 16.3%
discrimination index (DI) (scopolamine-treated mice; scopolamine 1 mg/kg i.p. + 10 mg/kg i.g.): 0.21 ± 0.08
discrimination index (DI) (scopolamine-treated mice; scopolamine 1 mg/kg i.p. + 30 mg/kg i.g.): 0.36 ± 0.03
discrimination index (DI) (scopolamine-treated mice; scopolamine 1 mg/kg i.p. + 100 mg/kg i.g.): 0.45 ± 0.05
IC50 (α1; read-out: IC50 for D01, α1): > 10 µM
% Inhibition of binding by D01 (10 μmol/L) (α1; α1, 10 μmol/L): 56.21%
minimal effective dose (MED), immobility in TST (mice [3]): 10 mg/kg
IC50 (SERT): 0.045 ± 0.009 µM
inhibition at 10 µM (5-HT2C): 38%
immobility time in TST (CRS mice [4]; 20 mg/kg i.g., 21 days (D01)): 87.61 ± 12.04 s
immobility time in TST (CRS mice [4]; 40 mg/kg i.g., 21 days): 68.17 ± 20.30 s
inhibition at 10 µM (D3): 32.8%
distance traveled while crossing the target zone, probe trial Day 5 (CRS mice [5]; 10 mg/kg i.g.): 4748.7 ± 308.1 cm
escape latency after four days of training (CRS mice [5]; 10 mg/kg i.g.): 37.3 ± 3.1 s
initial escape latency (CRS mice [5]; 10 mg/kg i.g.): 51.1 ± 2.5 s
distance traveled while crossing the target zone, probe trial Day 5 (CRS mice [5]; 20 mg/kg i.g.): 4501.3 ± 266.5 cm
escape latency after four days of training (CRS mice [5]; 20 mg/kg i.g.): 32.2 ± 3.6 s
initial escape latency (CRS mice [5]; 20 mg/kg i.g.): 45.7 ± 3.7 s
time in the target quadrant, probe trial Day 5 (CRS mice [5]; 20 mg/kg i.g.): 15.8 ± 0.8 s
distance traveled while crossing the target zone, probe trial Day 5 (CRS mice [5]; 40 mg/kg i.g.): 4357.5 ± 310.9 cm
escape latency after four days of training (CRS mice [5]; 40 mg/kg i.g.): 30.1 ± 3.9 s
initial escape latency (CRS mice [5]; 40 mg/kg i.g.): 42.6 ± 3.5 s
time in the target quadrant, probe trial Day 5 (CRS mice [5]; 40 mg/kg i.g.): 16.2 ± 0.8 s
inhibition at 10 µM (5-HT1B): 12%
inhibition at 10 µM (M1): 24.7%
IC50 (H1): > 10 µM
inhibition at 10 µM (H1; read-out: % Inhibition of binding by D01 (10 μmol/L)): 61.8%
IC50 (KCNQ2/3 channels): 10.1 ± 2.4 µM
Ki [6]: 0.0301 ± 0.0069 µM

CCN(C)C(=O)Oc1cccc([C@H](C)N(C)C)c1 [rivastigmine, reference compound]
improvement in scopolamine-induced cognitive impairment (scopolamine-treated mice; scopolamine 1 mg/kg i.p. + 0.01 mg/kg s.c.): did not show any noticeable improvement

CCOC(=O)Nc1ccc(NCc2ccc(F)cc2)cc1N [RTG, retigabine]
effect on native M current (native KCNQ/M channels; 10 μmol/L): activated

O=C1c2ccccc2C(Cc2ccncc2)(Cc2ccncc2)c2ccccc21 [XE991, reference compound]
reduction of immobility in FST (CRS mice [2]; 1 mg/kg s.c.): not statistically significant
effect on native M current (native KCNQ/M channels; 3 μmol/L): inhibited
time spent on familiar object (normal mice; 1 mg/kg s.c.): 16.50 ± 2.63 s
time spent on novel object (normal mice; 1 mg/kg s.c.): 38.40 ± 3.80 s
discrimination index (DI) (scopolamine-treated mice; scopolamine 1 mg/kg i.p. + XE991 1 mg/kg s.c.): 0.36 ± 0.04
reduction of immobility in TST (CRS mice [4]; 1 mg/kg s.c.): not statistically significant
effect on time and distance in target quadrant, probe trial Day 5 (CRS mice [5]; XE991 1 mg/kg s.c.): did not exhibit any noticeable effects
escape latency after four days of training (CRS mice [5]; XE991 1 mg/kg s.c.): 33.4 ± 3.4 s
initial escape latency (CRS mice [5]; XE991 1 mg/kg s.c.): 48.9 ± 3.4 s

CNCCC(Oc1ccc(C(F)(F)F)cc1)c1ccccc1 (centres unmarked) [fluoxetine, reference compound]
immobility time in FST (CRS mice [2]; [7]): 18.7 ± 6.3 s
difference in time spent on novel and familiar objects (normal mice; fluoxetine 100 mg/kg i.g.): no obvious difference
improvement in scopolamine-induced cognitive impairment (scopolamine-treated mice; scopolamine 1 mg/kg i.p. + fluoxetine 100 mg/kg i.g.): did not show any noticeable improvement
immobility time in TST (CRS mice [4]; [7]): 69.8 ± 14.9 s
effect on escape latency (CRS mice [5]; fluoxetine 20 mg/kg i.g.): did not show any significant effect
effect on time and distance in target quadrant, probe trial Day 5 (CRS mice [5]; fluoxetine 20 mg/kg i.g.): did not exhibit any noticeable effects
